Where two headings read alike, the source gives them in different places. Each block holds one molecule with its values, some of them ahead of it.
What was measured:
[1] = system: MGC803 stomach cancer cells; assay: anti-tumor activity in vitro (IC50), MTT; format: cell-based; settings: Homo sapiens, MGC-803, 72 h
Procedure: (§1) Cancer cells were cultured in vitro. When cell growth reached logarithmic phase, the cells were collected and centrifuged at 1000 rpm for 5 min, before the supernate was removed and the cells were suspended in a moderate amount of medium, and then the concentration of cell was adjusted to 3.5×10^4/mL. The cell suspension was added into a 96-well plate with 100 μL per well and cultured in a cell incubator (37° C., 5% CO2) for 24 h. Then test drugs of different end concentrations were added, and the negative control group was added DMSO (end concentration was 0.5%), while each group afforded three repetitive holes. After cultivation for another 72 h in the cell incubator, a solution containing 5 mg/ml MTT (20 μL) was added into each well and the 96-well plate was placed at 37° C. for 3 h. To each well was added 150 μL DMSO, after oscillation in a shaking table for 5 min, the optical density (OD) values at 492 nm/620 nm were measured. IC50 values were calculated by Prism Graphpad statistical software.

[2] = molecular target: T1, 20S proteasome extracted from rat liver (CT-L) (Rattus norvegicus, UniProt P18421+P28075); assay: inhibition of 20S proteasome, CT-L activity (fluorescent peptide); format: biochemical; settings: rat liver 20S proteasome; for IC50: read-out: IC50 (μM) CT-L
T1 construct: 20S proteasome extracted from rat liver; from tissue; host or cells: rat liver
Procedure: (§2) 1 μg of 20S proteasome extracted from rat liver was incubated with a 100 μL solution containing various concentrations of the present compounds, 50 μM fluorescent peptides and 20 mM Tris-HCl at 37° C. for 1 h, respectively. […] 0.1% DMSO was used as a solvent control. Compared with the fluorescence of solvent control, an inhibition rate or IC50 value was calculated.

[3] = molecular target: T2, 20S proteasome extracted from rat liver (PGPH) (Rattus norvegicus, UniProt P28073+Q9JHW0); assay: inhibition of 20S proteasome, PGPH activity (fluorescent peptide); format: biochemical; settings: rat liver 20S proteasome; for IC50: read-out: IC50 (μM) PGPH
T2 construct: 20S proteasome extracted from rat liver; from tissue; host or cells: rat liver
Procedure: as §2

HepG2 liver cancer cells = assay: anti-tumor activity in vitro (IC50), MTT; format: cell-based; settings: Homo sapiens, liver cancer cells, 72 h, read-out: IC50 (μM) HepG2
Procedure: as §1

[4] = molecular target: T3, 20S proteasome extracted from rat liver (T-L) (Rattus norvegicus, UniProt P40112+Q9JHW0); assay: inhibition of 20S proteasome, T-L activity (fluorescent peptide); format: biochemical; settings: rat liver 20S proteasome; for IC50: read-out: IC50 (μM) T-L
T3 construct: 20S proteasome extracted from rat liver; from tissue; host or cells: rat liver
Procedure: as §2

[5] = system: Hela, human cervical carcinoma; assay: preliminary anti-tumor screening in vitro, MTT method; format: cell-based; settings: read-out: inhibition rates (%) Hela
Procedure: (§3) The test methods used in this test example are routine methods for anti-tumor activities test in pharmaceutical area, for example, referring to the following reference: (J. Immunol Method, 1983, 65, 55).
(§4) Test models: A: MTT method (Hela, human cervical carcinoma); B: SRB method (BGC-823, […]); C: SRB method (MCF-7, breast cancer); D: SRB method (A549, human lung cancer); E: SRB method (PC3M1E8, prostate cancer).
(§5) Inhibition rates of the compounds were measured under concentrations of 0.1 μM, 1 μM or 10 μM.

MCF-7, breast cancer = assay: preliminary anti-tumor screening in vitro, SRB method; format: cell-based; settings: Homo sapiens, read-out: inhibition rates (%) MCF-7
Procedure: as §3, §4, §5

BGC-823, liver cancer = assay: as above; format: cell-based; settings: Homo sapiens, read-out: inhibition rates (%) BGC-823
Procedure: as §3, §4, §5

A549, human lung cancer = assay: as above; format: cell-based; settings: read-out: inhibition rates (%) A549
Procedure: as §3, §4, §5

[6] = MGC80-3, MTT, value ± spread, read-out: IC50 (μM), growth of stomach cancer cells (MGC80-3)
[7] = stomach cancer cells, MTT, read-out: IC50 (μM) MGC803

- IC50 [1, 6]: 0.143 ± 0.004 µM
SMILES: CC(C)C[C@H](NC(=O)[C@@H](NC(=O)N1CCc2ccccc2C1)C(C)C)B(O)O [Example 42, N-L-valyl-L-leucine borate-N′-1,2,3,4-tetrahydroisoquinoline-urea]

- IC50 [1, 6]: 0.111 ± 0.009 µM
SMILES: CC(C)C[C@H](NC(=O)[C@H](Cc1ccc([N+](=O)[O-])cc1)NC(=O)N1CCc2ccccc2C1)B(O)O [Example 48, N-L-4-nitro-phenylalanyl-L-leucine borate-N′-1,2,3,4-tetrahydroisoquinoline-urea]

- IC50 [2]: 0.0003 µM
- IC50 [3]: 0.24 µM
- IC50 (HepG2 liver cancer cells): 0.0372 µM
- IC50 [1, 7]: 0.00587 µM
- IC50 [4]: 1.15 µM
SMILES: CC(C)C[C@H](NC(=O)[C@H](Cc1ccccc1)NC(=O)NCc1ccc(-c2ccccc2)cc1)B(O)O [Example 32, N-L-phenylalanyl-L-leucine borate-N′-p-phenyl-benzylamine-urea]

- IC50 [1, 6]: > 100 µM
SMILES: COc1ccc2c(c1)CN(C(=O)N[C@@H](Cc1ccccc1)C(=O)N[C@@H](CC(C)C)B(O)O)CC2 [Example 51, N-L-phenylalanyl-L-leucine borate-N′-7-methoxy-1,2,3,4-tetrahydroisoquinoline-urea]

- IC50 [1, 6]: 0.137 ± 0.011 µM
SMILES: CC(C)C[C@H](NC(=O)[C@H](Cc1ccccc1)NC(=O)N1CCCc2ccccc21)B(O)O [Example 38, N-L-phenylalanyl-L-leucine borate-N′-1,2,3,4-tetrahydroquinoline-urea]

- IC50 [1, 6]: 0.139 ± 0.004 µM
SMILES: CC[C@H](C)[C@H](NC(=O)N1CCc2ccccc2C1)C(=O)N[C@@H](CC(C)C)B(O)O [Example 44, N-L-isoleucyl-L-leucine borate-N′-1,2,3,4-tetrahydroisoquinoline-urea]

- IC50 [1, 6]: 0.134 ± 0.003 µM
SMILES: CC(C)C[C@H](NC(=O)[C@H](C)NC(=O)N1CCc2ccccc2C1)B(O)O [Example 41, N-L-alanyl-L-leucine borate-N′-1,2,3,4-tetrahydroisoquinoline-urea]

- IC50 [1, 6]: 0.85 ± 0.106 µM
SMILES: COc1ccc2c(c1)CCN(C(=O)N[C@@H](Cc1ccccc1)C(=O)N[C@@H](CC(C)C)B(O)O)C2 [Example 52, N-L-phenylalanyl-L-leucine borate-N′-6-methoxy-1,2,3,4-tetrahydroisoquinoline-urea]

- IC50 [1, 6]: 0.006 µM
SMILES: CC(C)C[C@H](NC(=O)[C@H](Cc1ccccc1)NC(=O)N1CCc2ccsc2C1)B(O)O [Example 55, N-L-phenylalanyl-L-leucine borate-N′-4,5,6,7-tetrahydrothieno[2,3-c]pyridine-urea]

- IC50 [1, 6]: 0.0172 ± 0.002 µM
SMILES: COc1cc2c(cc1OC)CN(C(=O)N[C@@H](Cc1ccccc1)C(=O)N[C@@H](CC(C)C)B(O)O)CC2 [Example 50, N-L-phenylalanyl-L-leucine borate-N′-6,7-dimethoxy-1,2,3,4-tetrahydroisoquinoline-urea]

- IC50 [1, 6]: 0.0244 ± 0.005 µM
SMILES: CC(C)C[C@H](NC(=O)[C@H](CCc1ccccc1)NC(=O)N1CCc2ccccc2C1)B(O)O [Example 47, N-L-homophenylalanyl-L-leucine borate-N′-1,2,3,4-tetrahydroisoquinoline-urea]

- IC50 [1, 6]: 0.0401 ± 0.005 µM
SMILES: CC(C)C[C@H](NC(=O)[C@H](CCC(N)=O)NC(=O)N1CCc2ccccc2C1)B(O)O [Example 49]

- IC50 [1, 6]: 0.163 ± 0.008 µM
SMILES: CC(C)C[C@H](NC(=O)[C@H](CC(C)C)NC(=O)N1CCc2ccccc2C1)B(O)O [Example 40, N-L-leucyl-L-leucine borate-N′-1,2,3,4-tetrahydroisoquinoline-urea]

- IC50 [1, 6]: 0.0173 ± 0.003 µM
SMILES: CC(C)C[C@H](NC(=O)[C@H](Cc1ccc2ccccc2c1)NC(=O)N1CCc2ccccc2C1)B(O)O [Example 43, N-L-naphthylalanyl-L-leucine borate-N′-1,2,3,4-tetrahydroisoquinoline-urea]

- IC50 [1, 6]: 0.0046 µM
SMILES: CC(C)C[C@H](NC(=O)[C@H](Cc1ccccc1)NC(=O)N1CCc2ccc([N+](=O)[O-])cc2C1)B(O)O [Example 46, N-L-phenylalanyl-L-leucine borate-N′-7-nitro-1,2,3,4-tetrahydroisoquinoline-urea]

- inhibition at 0.2 µM ([2]; 0.2 μM, 37° C., 1 h, read-out: inhibition rates (%) CT-L): -14.2%
- inhibition at 2 µM ([2]; 2 μM, 37° C., 1 h, read-out: inhibition rates (%) CT-L): 10.4%
- inhibition at 20 µM ([2]; 20 μM, 37° C., 1 h, read-out: inhibition rates (%) CT-L): 77.7%
- inhibition at 0.2 µM ([3]; 0.2 μM, 37° C., 1 h, read-out: inhibition rates (%) PGPH): 2.03%
- inhibition at 2 µM ([3]; 2 μM, 37° C., 1 h, read-out: inhibition rates (%) PGPH): 2.19%
- inhibition at 20 µM ([3]; 20 μM, 37° C., 1 h, read-out: inhibition rates (%) PGPH): 62.7%
- inhibition at 0.2 µM ([4]; 0.2 μM, 37° C., 1 h, read-out: inhibition rates (%) T-L): 6.92%
- inhibition at 2 µM ([4]; 2 μM, 37° C., 1 h, read-out: inhibition rates (%) T-L): 4.38%
- inhibition at 20 µM ([4]; 20 μM, 37° C., 1 h, read-out: inhibition rates (%) T-L): 36.2%
SMILES: CC(C)C[C@H](NC(=O)N[C@@H](Cc1ccccc1)C(=O)Nc1cccc(OCc2ccccc2)c1)B(O)O [Example 4, N-L-leucine borate-N′-(3-benzyloxy-phenylcarbamoyl)-L-phenylalanine-urea]
- inhibition at 0.1 µM ([5]; 0.1 μM): 9.59%
- inhibition at 1 µM ([5]; 1 μM): 11.3%
- inhibition at 10 µM ([5]; 10 μM): 25.4%
- inhibition at 0.1 µM (MCF-7, breast cancer; MCF7, 0.1 μM): 6.46%
- inhibition at 1 µM (MCF-7, breast cancer; MCF7, 1 μM): 9.07%
- inhibition at 10 µM (MCF-7, breast cancer; MCF7, 10 μM): 9.93%
- inhibition at 0.1 µM (BGC-823, liver cancer; 0.1 μM): 6.67%
- inhibition at 1 µM (BGC-823, liver cancer; 1 μM): 4.64%
- inhibition at 10 µM (BGC-823, liver cancer; 10 μM): 13.1%
- inhibition at 0.1 µM (A549, human lung cancer; 0.1 μM): 6.4%
- inhibition at 1 µM (A549, human lung cancer; 1 μM): 16.2%
- inhibition at 10 µM (A549, human lung cancer; 10 μM): 31.1%

- IC50 [1, 6]: 2.24 ± 0.503 µM
SMILES: COc1cccc2c1CN(C(=O)N[C@@H](Cc1ccccc1)C(=O)N[C@@H](CC(C)C)B(O)O)CC2 [Example 53, N-L-phenylalanyl-L-leucine borate-N′-8-methoxy-1,2,3,4-tetrahydroisoquinoline-urea]

- IC50 [1, 6]: 0.361 ± 0.088 µM
SMILES: COc1cccc2c1CCN(C(=O)N[C@@H](Cc1ccccc1)C(=O)N[C@@H](CC(C)C)B(O)O)C2 [Example 54, N-L-phenylalanyl-L-leucine borate-N′-5-methoxy-1,2,3,4-tetrahydroisoquinoline-urea]

- IC50 [1, 6]: 0.139 ± 0.004 µM
SMILES: CC(C)C[C@H](NC(=O)[C@H](Cc1ccccc1)NC(=O)N1CCc2ccccc2C1C)B(O)O (stereo partly drawn) [Example 39, N-L-phenylalanyl-L-leucine borate-N′-1-methyl-1,2,3,4-tetrahydroisoquinoline-urea]

- IC50 [2]: 0.012 µM
- IC50 [3]: 0.12 µM
- IC50 (HepG2 liver cancer cells): 0.0531 µM
- IC50 [1, 7]: 0.00706 µM
- IC50 [4]: 0.15 µM
SMILES: CC(C)C[C@H](NC(=O)[C@H](Cc1ccccc1)NC(=O)NCc1cccc2ccccc12)B(O)O [Example 34, N-L-phenylalanyl-L-leucine borate-N′-naphth-1-ylmethylamine-urea]

- IC50 [1, 6]: 0.0092 ± 0.001 µM
SMILES: CC(C)C[C@H](NC(=O)[C@H](Cc1c[nH]c2ccccc12)NC(=O)N1CCc2ccccc2C1)B(O)O [Example 45, N-L-tryptophanyl-L-leucine borate-N′-1,2,3,4-tetrahydroisoquinoline-urea]

Source: patent US10494384B2, “Urea peptoid boric acid compound, pharmaceutical composition thereof, preparation method therefor, and uses thereof” (Peking University, priority 2015, dated 2019)
